Experimental data from patent publication US4612322A, “Azole type dioxolane derivatives” (Shionogi & Co., Ltd., priority 1983, dated 1986).
≈ marks a conversion by molar mass, not a printed value.

What was measured:
Trichophyton asteroides = assay: Antimycotic test against Trichophyton asteroides (in vitro, Sabouraud's dextrose broth); type: cell-based; details: read-out: Minimum Inhibitory Concentration (MIC)
Text: Sabouraud's dextrose broth* was used as culture medium.

Candida albicans KE-2 [1] = assay: Test on inhibition against formation of the pseudohyphae in Candida albicans; type: cell-based; details: KE2; Candida albicans KE-2, 1×10^6 cells/ml, Eagle broth + 20% bovine serum, 37° C., 18 hours; read-out: Inhibitory concentration against pseudohyphae formation
Procedure: To Eagle MEN broth (Nissan 2, Nissui Seiyaku Co., Ltd.) was added 20% bovine serum and inoculated Candida albicans KE-2 yeast cells at rate of 1×10^6 cells/ml (final inoculum size), and each test compound was added thereto in two-fold serial dilution method. After termination of cultivation at 37° C. for 18 hours, each organism of the serial dilution was smeared and fixed on a slide glass and stained by Giemsa's staining, and occurrence of the pseudohyphae was observed under a microscope. Minimum concentration which could inhibit the formation of pseudohyphae was regarded as the inhibitory concentration of the compound against pseudohyphae formation.

Candida albicans KE-2 [2] = assay: Therapeutic effect against experimental candidasis in mice; type: in vivo, Jcl-ICR female mice; details: 15th day from infection; 25 mg/Kg oral, twice per day for 5 days; 5×10^5 Candida albicans KE-2 cells i.v.; eight mice; control 0
Procedure: Candida albicans KE-2 was cultured in a Sabouraud's dextrose agar at 28° C. for 48 hours, and the resulting culture was suspended in the Sabouraud's dextrose broth. The resulting cells (5×10^5) were intravenously administered at the tail of Jcl-ICR female mice (4 weeks age, body weight: 18-20 g). Each test compound suspended in 2% gum-arabic was orally administered at a dose of 25 mg/Kg twice per day for 5 days; on the first day, the test compound is administered twice, i.e., immediately after the infection and 2 hours later; on the second day or later, 24 hours after the administration of the previous day respectively. After the infection, no test compound was administered to a control group. Eight mice were employed in the control group and the test groups to which the test compound was administered The therapuetic effect was evaluated on the survival rate at the 15th day from the day of infection; the result is shown below.

[3] = in vivo, po; cited from earlier work

Compound | MIC (Trichophyton asteroides) [µg/mL] | minimal effective concentration (Candida albicans KE-2 [1]) [µg/mL] | Survival rate (Candida albicans KE-2 [2]) [%] | adverse reactions [3]
CC(C)C1OC(=O)OC1(Cn1cncn1)c1ccc(Cl)cc1Cl (stereo not shown) [Compound 2] | 3.1 (≈ 8.7 µM) | 0.63 | 100 | –
CC(=O)N1CCN(c2ccc(OCC3COC(Cn4ccnc4)(c4ccc(Cl)cc4Cl)O3)cc2)CC1 (stereo not shown) [Ketoconazole] | – | – | – | hepatic dysfunction
O=C1OC(c2ccccc2Cl)C(Cn2cncn2)(c2ccccc2Cl)O1 (stereo not shown) [Compound 7] | – | 0.31 | – | –
Cc1ccc(C2OC(=O)OC2(Cn2cncn2)c2ccccc2Cl)cc1 (stereo not shown) [Compound 15] | 3.1 (≈ 8.38 µM) | 0.63 | – | –
O=C1OC(c2ccc(Cl)cc2Cl)C(Cn2cncn2)(c2ccc(Cl)cc2)O1 (stereo not shown) [Compound 5] | – | 0.63 | 100 | –
Cc1ccc(C2OC(=O)OC2(Cn2cncn2)c2ccc(C)cc2)cc1 (stereo not shown) [Compound 11] | – | 1.25 | – | –
CCCC1OC(=O)OC1(Cn1cncn1)c1ccc(Cl)cc1Cl (stereo not shown) [Compound 12] | 1.6 (≈ 4.49 µM) | – | – | –
O=C1OC(c2ccc(F)cc2)C(Cn2cncn2)(c2ccc(F)cc2)O1 (stereo not shown) [Compound 8] | 3.1 (≈ 8.68 µM) | – | – | –

Continued, in another order:

MIC (Trichophyton asteroides) [µg/mL] | Compound | minimal effective concentration (Candida albicans KE-2 [1]) [µg/mL] | Survival rate (Candida albicans KE-2 [2]) [%] | adverse reactions [3]
0.1 (≈ 0.225 µM) | O=S1OC(c2ccc(Cl)cc2Cl)C(Cn2cncn2)(c2ccc(Cl)cc2)O1 (single isomer, unassigned) [Compound 27B] | 0.02 | 75 | –
0.1 (≈ 0.245 µM) | O=C1OC(c2ccc(F)cc2)C(Cn2cncn2)(c2ccc(Cl)cc2Cl)O1 (stereo not shown) [Compound 1, 4-(2,4-dichlorophenyl)-5-(4-fluorophenyl)-2-oxo-4-(1H-1,2,4-triazol-1-yl)methyl-1,3-dioxolane] | 0.31 | 87.5 | –
0.2 (≈ 0.54 µM) | CCCCC1OC(=O)OC1(Cn1cncn1)c1ccc(Cl)cc1Cl (stereo not shown) [Compound 4] | – | – | –
0.1 (≈ 0.256 µM) | O=C1OC(c2ccccc2)C(Cn2cncn2)(c2ccc(Cl)cc2Cl)O1 (stereo not shown) [Compound 3] | – | – | –
0.8 (≈ 1.82 µM) | CC1(C)OC(c2ccc(Cl)cc2Cl)C(Cn2cncn2)(c2ccc(Cl)cc2)O1 (stereo not shown) [Compound 39, 4-(4-chlorophenyl)-5-(2,4-dichlorophenyl)-2,2-dimethyl-4-(1H-1,2,4-triazol-1-yl)methyl-1,3-dioxolane] | 5 | – | –
0.2 (≈ 0.471 µM) | O=C1OC(c2ccc(Cl)cc2)C(Cn2cncn2)(c2ccc(Cl)cc2Cl)O1 (single isomer, unassigned) [Compound 19] | 0.04 | 86 | –
0.1 (≈ 0.257 µM) | O=C1OC(c2ccccc2)C(Cn2ccnc2)(c2ccc(Cl)cc2Cl)O1 (stereo not shown) [Compound 23] | 0.16 | – | –
0.1 (≈ 0.254 µM) | Fc1ccc(C2OCOC2(Cn2cncn2)c2ccc(Cl)cc2Cl)cc1 (stereo not shown) [Compound 34] | 0.31 | – | –
0.2 (≈ 0.65 µM) | CCCC1OCOC1(Cn1cncn1)c1ccc(Cl)cc1 (stereo not shown) [Compound 33] | 0.16 | – | –
